Test results as given in ChEMBL document CHEMBL1201862, “PubChem BioAssay data set” (2004).
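Where inhibition never reached the appropriate level, the endpoint shown equals the highest concentration tested. Otherwise, values were interpolated linearly from a five-concentration, 48-hour dose response in 96-well plates. Abbreviation: GI50, concentration required for 50% inhibition of growth.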 The source made the active and inactive calls. No stated cut-off is given here; in the data, active = GI50 up to about 1.1 µM and inactive = higher.

Columns and labels:
Assay in all cases: NCI tumour cell line growth inhibition, 48 h
786-0 = test system: 786-0
A498 = test system: A498
A549 = test system: A549
ACHN = test system: ACHN
BT-549 = test system: BT-549
CAKI-1 = test system: CAKI-1
CCRF-CEM = test system: CCRF-CEM
COLO 205 = test system: COLO 205
DU-145 = test system: DU-145
EKVX = test system: EKVX
HCC 2998 = test system: HCC 2998
HCT-116 = test system: HCT-116
HCT-15 = test system: HCT-15
HL-60 = test system: HL-60
HOP-62 = test system: HOP-62
HOP-92 = test system: HOP-92
HT-29 = test system: HT-29
Hs-578T = test system: Hs-578T
IGROV-1 = test system: IGROV-1
K562 = test system: K562
KM12 = test system: KM12
LOX IMVI = test system: LOX IMVI
M14 = test system: M14
MCF7 = test system: MCF7
MDA-MB-231 = test system: MDA-MB-231
MDA-MB-435 = test system: MDA-MB-435
MDA-N = test system: MDA-N
MOLT-4 = test system: MOLT-4
Malme-3M = test system: Malme-3M
NCI-H23 = test system: NCI-H23
NCI-H460 = test system: NCI-H460
NCI-H522 = test system: NCI-H522
NCI/ADR-RES = test system: NCI/ADR-RES
OVCAR-3 = test system: OVCAR-3
OVCAR-4 = test system: OVCAR-4
OVCAR-5 = test system: OVCAR-5
OVCAR-8 = test system: OVCAR-8
PC-3 = test system: PC-3
RPMI-8226 = test system: RPMI-8226
RXF 393 = test system: RXF 393
SF-268 = test system: SF-268
SF-295 = test system: SF-295
SF-539 = test system: SF-539
SK-MEL-28 = test system: SK-MEL-28
SK-MEL-2 = test system: SK-MEL-2
SK-MEL-5 = test system: SK-MEL-5
SK-OV-3 = test system: SK-OV-3
SN12C = test system: SN12C
SNB-19 = test system: SNB-19
SNB-75 = test system: SNB-75
SW-620 = test system: SW-620
T47D = test system: T47D
TK-10 = test system: TK-10
U-251 = test system: U-251
UACC-257 = test system: UACC-257
UACC-62 = test system: UACC-62
UO-31 = test system: UO-31

For `Cc1cc(OC2OC(CO)C(O)C(O)C2O)ccc1O` (configuration not stated), the GI50 (786-0) was > 100 µM (inactive), the GI50 (A498) was > 100 µM (inactive) and the GI50 (A549) was > 100 µM (inactive). For the same compound, the GI50 (ACHN) was > 100 µM (inactive), the GI50 (BT-549) was > 100 µM (inactive) and the GI50 (CAKI-1) was > 100 µM (inactive). The GI50 (CCRF-CEM) was > 100 µM (inactive), the GI50 (COLO 205) was > 100 µM (inactive) and the GI50 (DU-145) was > 10 µM (inactive). For the same compound, the GI50 (EKVX) was > 100 µM (inactive), the GI50 (HCC 2998) was > 100 µM (inactive) and the GI50 (HCT-116) was > 100 µM (inactive). For the same compound, the GI50 (HCT-15) was greater than 100 µM, the GI50 (HL-60) was > 100 µM (inactive) and the GI50 (HOP-62) was > 100 µM (inactive). The GI50 (HOP-92) was > 100 µM (inactive), the GI50 (HT-29) was > 100 µM (inactive) and the GI50 (Hs-578T) was > 100 µM (inactive). For the same compound, the GI50 (IGROV-1) was > 100 µM (inactive), the GI50 (K562) was > 100 µM (inactive) and the GI50 (KM12) was > 100 µM (inactive). For the same compound, the GI50 (LOX IMVI) was > 100 µM (inactive), the GI50 (M14) was > 100 µM (inactive) and the GI50 (MCF7) was > 100 µM (inactive). The GI50 (MDA-MB-231) was > 100 µM (inactive), the GI50 (MDA-MB-435) was > 100 µM (inactive) and the GI50 (MDA-N) was > 100 µM (inactive). The GI50 (MOLT-4) was > 100 µM (inactive), the GI50 (Malme-3M) was > 100 µM (inactive) and the GI50 (NCI-H23) was > 100 µM (inactive). For the same compound, the GI50 (NCI-H460) was > 100 µM (inactive), the GI50 (NCI-H522) was > 100 µM (inactive) and the GI50 (NCI/ADR-RES) was > 100 µM (inactive). The GI50 (OVCAR-3) was > 100 µM (inactive), the GI50 (OVCAR-4) was > 100 µM (inactive) and the GI50 (OVCAR-5) was > 100 µM (inactive). The GI50 (OVCAR-8) was > 100 µM (inactive), the GI50 (PC-3) was > 100 µM (inactive) and the GI50 (RPMI-8226) was > 100 µM (inactive). The GI50 (RXF 393) was > 100 µM (inactive), the GI50 (SF-268) was > 100 µM (inactive) and the GI50 (SF-295) was > 100 µM (inactive). For the same compound, the GI50 (SF-539) was > 100 µM (inactive), the GI50 (SK-MEL-28) was > 100 µM (inactive) and the GI50 (SK-MEL-2) was > 100 µM (inactive). The GI50 (SK-MEL-5) was > 100 µM (inactive), the GI50 (SK-OV-3) was > 100 µM (inactive) and the GI50 (SN12C) was > 100 µM (inactive). For the same compound, the GI50 (SNB-19) was > 100 µM (inactive), the GI50 (SNB-75) was > 100 µM (inactive) and the GI50 (SW-620) was > 100 µM (inactive). The GI50 (T47D) was > 100 µM (inactive), the GI50 (TK-10) was > 100 µM (inactive) and the GI50 (U-251) was > 100 µM (inactive). The GI50 (UACC-257) was > 100 µM (inactive), the GI50 (UACC-62) was > 100 µM (inactive) and the GI50 (UO-31) was > 100 µM (inactive).
